Data from ChEMBL document CHEMBL1129417, “Glucose transport-enhancing and hypoglycemic activity of 2-methyl-2-phenoxy-3-phenylpropanoic acids” (1996).

Key:
3T3-L1 [1] = experiment: compound was evaluated for their acute effects in vitro by measuring 2-Deoxyglucose (2DG) uptake in vehicle treated 3T3-L1 adipocytes at concentration of 10 micro M; format: functional
3T3-L1 [2] = experiment: compound was evaluated for their acute effects in vitro by measuring 2-Deoxyglucose (2DG) uptake in vehicle treated 3T3-L1 adipocytes at concentration of 3 micro M; format: functional
3T3-L1 [3] = experiment: compound was evaluated for their acute effects in vitro by measuring 2-Deoxyglucose (2DG) uptake in vehicle treated 3T3-L1 adipocytes at concentration of 30 micro M; format: functional
Mus musculus [4] = experiment: compound was tested in vivo for hypoglycemic activity expressed as Glucose lowering relative to positive control in 6-8 week old C57BL/6J ob/ob mouse at 0.1 mg/kg; format: functional
Mus musculus [5] = experiment: compound was tested in vivo for hypoglycemic activity expressed as Glucose lowering relative to positive control in 6-8 week old C57BL/6J ob/ob mouse at 0.5 mg/kg; format: functional
Mus musculus [6] = experiment: In vivo hypoglycemic activity expressed as glucose lowering relative to positive control in 6-8 week old C57BL/6J ob/ob mouse at 10 mg/kg; format: functional
Mus musculus [7] = experiment: In vivo hypoglycemic activity expressed as glucose lowering relative to positive control in 6-8 week old C57BL/6J ob/ob mouse at 1 mg/kg.; format: functional
Mus musculus [8] = experiment: In vivo hypoglycemic activity expressed as glucose lowering relative to positive control in 6-8 week old C57BL/6J ob/ob mouse at 5 mg/kg.; format: functional
Rattus norvegicus [9] = species: Rattus norvegicus; experiment: Inhibition of gluconeogenesis in rat; format: functional; conditions: Rattus norvegicus; read-out: ED50
3T3-L1 [10] = experiment: Acute effects in vitro by measuring 2-deoxyglucose (2DG) uptake in vehicle treated 3T3-L1 adipocytes at 10 uM dose.; format: functional
3T3-L1 [11] = experiment: compound was evaluated for their acute effects in vitro by measuring 2-Deoxyglucose (2DG) uptake in vehicle treated 3T3-L1 adipocytes at 1 uM dose.; format: functional
3T3-L1 [12] = experiment: compound was evaluated for their acute effects in vitro by measuring 2-Deoxyglucose (2DG) uptake in vehicle treated 3T3-L1 adipocytes at 3 uM dose.; format: functional
3T3-L1 [13] = experiment: compound was evaluated for their acute effects in vitro by measuring 2-Deoxyglucose (2DG) uptake in vehicle treated 3T3-L1 adipocytes at 10 uM dose.; format: functional
3T3-L1 [14] = experiment: compound was evaluated for their acute effects in vitro by measuring 2-Deoxyglucose (2DG) uptake in vehicle treated 3T3-L1 adipocytes at 30 uM dose.; format: functional
Mus musculus [15] = experiment: compound was tested in vivo for hypoglycemic activity in 6-8 week old C57BL/6J ob/ob mouse at 10 mg/kg; format: functional
Rattus norvegicus [16] = species: Rattus norvegicus; experiment: Compound was tested for inhibition of gluconeogenesis; format: functional; conditions: Rattus norvegicus; read-out: ED50
3T3-L1 [17] = experiment: In vitro measurements 2-Deoxyglucose (2DG) uptake in vehicle treated 3T3-L1 adipocytes at 100 uM dose.; format: functional
Mus musculus [18] = experiment: compound was tested in vivo for hypoglycemic activity in 6-8 week old C57BL/6J ob/ob mouse; format: functional
Mus musculus [19] = experiment: compound was tested in vivo for hypoglycemic activity expressed as Glucose lowering relative to positive control in 6-8 week old C57BL/6J ob/ob mouse; format: functional
3T3-L1 [20] = experiment: compound was evaluated for their acute effects in vitro by measuring 2-Deoxyglucose (2DG) uptake in vehicle treated 3T3-L1 adipocytes at 60 uM dose.; format: functional
Mus musculus [21] = experiment: compound was tested in vivo for hypoglycemic activity in 6-8 week old C57BL/6J ob/ob mouse at 50 mg/kg; format: functional
L6 [22] = experiment: compound was evaluated for their acute effects in vitro by measuring 2-Deoxyglucose (2DG) uptake in vehicle treated L6 […] at 60 uM dose.; format: functional
Mus musculus [23] = experiment: compound was tested in vivo for hypoglycemic activity expressed as Glucose lowering relative to positive control in 6-8 week old C57BL/6J ob/ob mouse at 5 mg/kg; format: functional
Mus musculus [24] = experiment: compound was tested in vivo for hypoglycemic activity expressed as Glucose lowering relative to positive control in 6-8 week old C57BL/6J ob/ob mouse at 50 mg/kg; format: functional
Rattus norvegicus [25] = species: Rattus norvegicus; experiment: Percentage inhibition of Glucagon- stimulated Gluconeogenesis in Isolated Rat Hepatocytes in vitro; format: functional, Hepatocyte
Rattus norvegicus [26] = species: Rattus norvegicus; experiment: Percentage inhibition of basal stimulated Gluconeogenesis in Isolated Rat Hepatocytes in vitro; format: functional, Hepatocyte
3T3-L1 [27] = experiment: Acute effects in vitro by measuring 2-deoxyglucose (2DG) uptake in vehicle treated 3T3-L1 adipocytes at 30 uM dose.; format: functional
3T3-L1 [28] = experiment: In vitro by measurements of 2-Deoxyglucose (2DG) uptake in vehicle treated 3T3-L1 adipocytes at 3 uM dose.; format: functional
L6 [29] = experiment: compound was evaluated for their acute effects in vitro by measuring 2-Deoxyglucose (2DG) uptake in vehicle treated L6 […] at 100 uM dose.; format: functional
L6 [30] = experiment: compound was evaluated for their acute effects in vitro by measuring 2-Deoxyglucose (2DG) uptake in vehicle treated L6 […] at 30 uM dose.; format: functional
Mus musculus [31] = experiment: compound was tested in vivo for hypoglycemic activity expressed as Glucose lowering relative to positive control in 6-8 week old C57BL/6J ob/ob mouse at 25 mg/kg; format: functional
3T3-L1 [32] = experiment: compound was evaluated for their acute effects in vitro by measuring 2-Deoxyglucose (2DG) uptake in vehicle treated 3T3-L1 adipocytes at 100 uM dose.; format: functional
Rattus norvegicus [33] = species: Rattus norvegicus; experiment: Percentage inhibition of Glucagon stimulated Gluconeogenesis in Isolated Rat Hepatocytes in vitro; format: functional, Hepatocyte
Mus musculus [34] = experiment: compound was tested in vivo for hypoglycemic activity in 6-8 week old C57BL/6J ob/ob mouse at 25 mg/kg; format: functional

## CCc1cccc(CC(C)(Oc2ccc(Cc3ccccc3)cc2)C(=O)[O-])c1.[Na+] (stereo not given)
3T3-L1 [1]
  Basal uptake: 179%
3T3-L1 [2]
  Basal uptake: 128%
3T3-L1 [3]
  Basal uptake: 265%
Mus musculus [4]
  Hypoglycemic activity: 73%
Mus musculus [5]
  Hypoglycemic activity: 52%
Mus musculus [6]
  Hypoglycemic activity: 101%
Mus musculus [7]
  Hypoglycemic activity: 87%
Mus musculus [8]
  Hypoglycemic activity: 102%
Rattus norvegicus [9]
  ED50: 0.1 mg/kg

## CC(C)c1ccc(OC(C)(Cc2ccccc2)C(=O)[O-])cc1.[Na+] (stereo not given)
3T3-L1 [10]
  Basal uptake: 126%
3T3-L1 [11]
  Basal uptake: 100%
3T3-L1 [12]
  Basal uptake: 162%
Mus musculus [6]
  Hypoglycemic activity: 3%
Rattus norvegicus [9]
  ED50: > 10 mg/kg

## CC(C)c1ccc(OC(C)(C[N-]SC(F)(F)F)Cc2ccc(Cl)cc2)cc1.[Na+] (stereo not given)
3T3-L1 [13]
  Basal uptake: 132%
3T3-L1 [14]
  Basal uptake: 159%
3T3-L1 [12]
  Basal uptake: 127%
Mus musculus [15]
  Hypoglycemic activity: <0%
Rattus norvegicus [16]
  ED50: > 10 mg/kg

## Cc1ccc(CC(Oc2ccc(C(C)C)cc2)C(=O)O)cc1 (stereo not given)
3T3-L1 [17]
  Basal uptake: 147%
Mus musculus [18]
  Glucose lowering ob/ob dose: 50 mg/kg
Mus musculus [19]
  Hypoglycemic activity: 113%
Rattus norvegicus [9]
  ED50: < 50 mg/kg

## CC(C)c1ccc(SC(Cc2ccc(Cl)cc2)C(=O)O)cc1 (stereo not given)
3T3-L1 [20]
  Basal uptake: 102%
Mus musculus [15]
  Hypoglycemic activity: 0%
Mus musculus [21]
  Hypoglycemic activity: 90%
Rattus norvegicus [16]
  ED50: 10 mg/kg

## CC(C)c1ccc(OC(CCCCCc2ccc(Cl)cc2)C(=O)[O-])cc1.[Na+] (stereo not given)
3T3-L1 [13]
  Basal uptake: 180%
L6 [22]
  Basal uptake: 44%
Mus musculus [6]
  Hypoglycemic activity: 32%
Mus musculus [23]
  Hypoglycemic activity: 35%
Mus musculus [24]
  Hypoglycemic activity: 200%
Rattus norvegicus [9]
  ED50: 10 mg/kg

## CC(C)c1ccc(OC(Cc2ccccc2)C(=O)O)cc1 (stereo not given)
3T3-L1 [17]
  Basal uptake: 79%
Mus musculus [24]
  Hypoglycemic activity: 50%
Rattus norvegicus [9]
  ED50: 50 mg/kg
Rattus norvegicus [25]
  Inhibition: 25%
Rattus norvegicus [26]
  Inhibition: 41%

## Cc1ccc(S(=O)(=O)C(CCCCCc2ccc(Cl)cc2)C(=O)O)cc1 (stereo not given)
3T3-L1 [17]
  Basal uptake: 250%
3T3-L1 [10]
  Basal uptake: 93%
3T3-L1 [27]
  Basal uptake: 100%
3T3-L1 [28]
  Basal uptake: 114%
L6 [22]
  Basal uptake: 124%
L6 [29]
  Basal uptake: 134%
L6 [30]
  Basal uptake: 88%
Mus musculus [6]
  Hypoglycemic activity: 22%
Mus musculus [31]
  Hypoglycemic activity: 60%
Mus musculus [24]
  Hypoglycemic activity: 71%
Rattus norvegicus [9]
  ED50: 25 mg/kg

## C1CCC(NC2CCCCC2)CC1.CC(C)c1ccc(OC(Cc2cccc(F)c2)C(=O)O)cc1 (stereo not given)
3T3-L1 [32]
  Basal uptake: 111%
Rattus norvegicus [33]
  Inhibition: 3%
Rattus norvegicus [26]
  Inhibition: 38%
Mus musculus [34]
  Hypoglycemic activity: 65%
Mus musculus [21]
  Hypoglycemic activity: 100%
Rattus norvegicus [16]
  ED50: < 25 mg/kg
